Results reported in publication PMC7269146, “Jingzhaotoxin-X, a gating modifier of Kv4.2 and Kv4.3 potassium channels purified from the venom of the Chinese tarantula Chilobrachys jingzhao” (The Journal of Venomous Animals and Toxins Including …, 2020).
Where two headings read alike, the source gives them in different places. Where a SMILES comes first, the peptide text is derived from it. Bridges are numbered along the chain shown (N, C = ends).

Legend:
Kv4.2 = target: T1, Kv4.2 (Rattus norvegicus, UniProt Q63881); experiment: triple-pulse protocol, toxin dissociation by strong depolarization, Kv4.2 in HEK 293T cells; type: cell-based; conditions: 500 nM; for inhibition at 0.5 µM: HEK-293T
T1 construct: expressed in transfected cells; host or cells: HEK293t
T1 sequence (Q63881 1-630): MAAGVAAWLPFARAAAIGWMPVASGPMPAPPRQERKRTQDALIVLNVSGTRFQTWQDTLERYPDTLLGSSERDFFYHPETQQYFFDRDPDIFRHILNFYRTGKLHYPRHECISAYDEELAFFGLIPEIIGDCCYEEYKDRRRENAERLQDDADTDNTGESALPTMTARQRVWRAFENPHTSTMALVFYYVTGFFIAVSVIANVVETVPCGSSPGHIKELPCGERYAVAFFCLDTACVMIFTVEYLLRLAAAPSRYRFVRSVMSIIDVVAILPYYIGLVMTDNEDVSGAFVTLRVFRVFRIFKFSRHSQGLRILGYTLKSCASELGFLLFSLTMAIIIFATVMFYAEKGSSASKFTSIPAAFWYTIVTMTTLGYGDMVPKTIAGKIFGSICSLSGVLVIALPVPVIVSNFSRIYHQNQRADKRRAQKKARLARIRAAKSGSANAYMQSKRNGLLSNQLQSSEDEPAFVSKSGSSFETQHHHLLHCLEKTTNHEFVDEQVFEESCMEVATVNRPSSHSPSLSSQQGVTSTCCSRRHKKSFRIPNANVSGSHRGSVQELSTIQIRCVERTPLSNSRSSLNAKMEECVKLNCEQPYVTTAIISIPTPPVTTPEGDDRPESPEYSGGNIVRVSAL
Description: (§1) Rat cDNA genes encoding Kv4.2 (Accession: NM_031730.2) and Kv4.3 (Accession: AB003587.1) were subcloned to vector pcDNA3.1. In addition, human cDNA genes encoding Nav1.7 (Accession: DQ857292.1) and Nav1.5 (Accession: AB158469.2) were subcloned to vectors pcDNA3.1-mod and pcDNA3.1, separately. Then, Kv4.2, Kv4.3, Nav1.5 and Nav1.7 constructs were transiently transfected into the human embryonic kidney 293t (HEK293t) cells using lipofectamine 2000 (Invitrogen, USA) in accordance with manufacturer protocols. Thereafter, HEK293 cells were inoculated within Dulbecco’s modified Eagle’s medium (DMEM) containing 10% fetal bovine serum (FBS) at 5% CO2 and 37°C. The Kv4.3 channel and the Kv4.2 counterpart were then transfected in the absence of β subunit. Subsequently, cells were incubated with a DNA-lipofectamine mixture (one reporter plasmid for green fluorescence protein and channel constructs) for 4-6 h, and were washed with the fresh medium.
(§2) An EPC-10 patch-clamp amplifier (HEKA, Germany) was employed to record the potassium currents at the configuration of whole-cell patch-clamp under an ambient temperature of 22-25°C. The resistance was 2.0-3.0 MΩ when the recording pipette contained a full volume of internal solution (supplemented with 140 mM KCl, 10 mM HEPES, 2.5 mM MgCl2, 5 mM ATP and 11 mM EGTA). KOH was utilized to adjust the pH to 7.2, while sucrose was employed to adjust the osmolarity to 310 mOsm/L. The culture medium was replaced with an external solution containing 150 mM NaCl, 2.5 mM CaCl2, 10 mM HEPES, 2 mM MgCl2, 5 mM KCl, and 10 mM D-glucose. Similarly, sucrose and NaOH were applied to adjust the osmolarity to 330 mOsm/L and pH to 7.4. […] The series resistance was maintained at about 5 MΩ, with 65-70% compensation. Finally, the leakage currents and linear capacitance were subtracted digitally according to the P/4 protocol.
Subsequently, we examined whether strong depolarization induced toxin dissociation from potassium channels. To address this question, the triple-pulse protocol was utilized, which used the test pulse of +20 mV after potent depolarization (+130 mV) to measure the available Kv4.2 currents (Fig. 6, inset). […] Furthermore, this toxin also affected the amplitude of outward Kv4.2 currents (46.3 ± 5.6%) by the second pulse (+130 mV). Typically, the amplitude of current acquired was nearly the same as that in controls induced by a third pulse (+20 mV), since the inhibition was only 17.5 ± 3.9% (Fig. 6, n = 7).
Figure 6. Potent depolarization dissociated the toxin-channel complex. The 300 ms test pulse at the voltage of +20 mV was utilized to induce the current traces. Prior to the application of test pulse, cells held at the voltage of -80 mV depolarized for 500 ms at the conditioning pulse of +130 mV and the holding potential of 50 ms (see inset). Following 500 nM JZTX-X perfusion, the test pulse-elicited current amplitude was nearly identical to the control after the 500 ms conditioning pulse.

Kv4.3 = target: T2, Kv4.3 (Rattus norvegicus, UniProt Q62897); experiment: kinetic constants of JZTX-X at Kv4.3 channel (wash-in / wash-out); type: cell-based; conditions: test conc. 0.5 μM, n = 8
T2 construct: expressed in transfected cells; host or cells: HEK293t
T2 sequence (Q62897 1-655): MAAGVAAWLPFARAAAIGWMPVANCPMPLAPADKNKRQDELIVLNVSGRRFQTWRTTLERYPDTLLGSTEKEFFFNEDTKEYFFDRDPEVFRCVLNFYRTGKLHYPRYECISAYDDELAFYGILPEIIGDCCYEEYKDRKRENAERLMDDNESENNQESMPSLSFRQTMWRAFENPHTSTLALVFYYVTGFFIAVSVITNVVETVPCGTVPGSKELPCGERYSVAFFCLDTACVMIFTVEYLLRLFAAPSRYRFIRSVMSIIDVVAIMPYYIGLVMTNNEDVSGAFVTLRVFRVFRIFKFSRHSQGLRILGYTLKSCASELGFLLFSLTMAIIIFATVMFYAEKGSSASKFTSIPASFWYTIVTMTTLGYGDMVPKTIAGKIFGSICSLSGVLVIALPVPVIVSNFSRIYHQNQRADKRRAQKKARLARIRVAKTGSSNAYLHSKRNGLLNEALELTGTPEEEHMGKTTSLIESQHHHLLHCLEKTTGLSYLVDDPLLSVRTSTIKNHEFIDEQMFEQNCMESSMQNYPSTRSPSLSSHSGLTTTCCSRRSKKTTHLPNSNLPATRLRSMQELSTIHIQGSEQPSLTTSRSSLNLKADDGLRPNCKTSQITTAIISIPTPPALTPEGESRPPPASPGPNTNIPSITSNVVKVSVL
Description: as §1, §2
As for kinetic calculations, curves as a function of peak currents vs. time were plotted from the toxin wash-out or wash-in moments. The software Sigmaplot 9.0 (Sigma, USA) was utilized to fit data to the first-order exponential equation. […]

CC(C)C[C@@H]1NC(=O)[C@H](CCCCN)NC(=O)[C@H](Cc2ccc(O)cc2)NC(=O)[C@@H]2CSSC[C@@H]3NC(=O)[C@H](Cc4ccc(O)cc4)NC(=O)[C@H](Cc4ccccc4)NC(=O)CNC(=O)[C@H](C)NC(=O)[C@H](CSSC[C@H](NC(=O)[C@@H](N)CC(C)C)C(=O)N[C@@H](CO)C(=O)N[C@@H](CCCNC(=N)N)C(=O)N[C@@H](CCC(=O)O)C(=O)NCC(=O)N[C@@H](CCC(=O)O)C(=O)N[C@@H](Cc4ccccc4)C(=O)N2)NC(=O)[C@H](CSSC[C@@H](C(=O)N[C@@H](Cc2ccc(O)cc2)C(=O)N[C@@H](CCCNC(=N)N)C(=O)N[C@@H](CC(N)=O)C(=O)O)NC(=O)[C@H](Cc2c[nH]cn2)NC(=O)[C@H](CC(C)C)NC(=O)[C@H](C(C)C)NC(=O)[C@H](Cc2ccccc2)NC(=O)[C@H](C)NC(=O)[C@H](CCCCN)NC3=O)NC(=O)[C@H](CCCCN)NC(=O)[C@H](CCCNC(=N)N)NC1=O [JZTX-X, Jingzhaotoxin-X] (H-LCSREGEFCYKLRKCCAGFYCKAFVLHCYRN-OH; disulfide 2-16, 9-21, 15-28; N-terminus assumed)
inhibition of Kv4.2 outward current, second pulse (+130 mV) (Kv4.2; 500 ms conditioning pulse, n = 7, 0.5 µM): ~ 46%
inhibition of Kv4.2 current, first pulse (+20 mV) (Kv4.2; holding -80 mV, n = 7, 0.5 µM): ~ 93%
inhibition at 0.5 µM (Kv4.2; 500 ms conditioning pulse, n = 7, read-out: inhibition of Kv4.2 outward current, second pulse (+130 mV)): 46.3 ± 5.6%
inhibition at 0.5 µM (Kv4.2; after +130 mV conditioning pulse, n = 7, read-out: inhibition of Kv4.2 current, third pulse (+20 mV)): 17.5 ± 3.9%
inhibition at 0.5 µM (Kv4.2; holding -80 mV, n = 7, read-out: inhibition of Kv4.2 current, first pulse (+20 mV)): 92.6 ± 3.2%
kmod, Kv4.3 channel (Kv4.3; inverse of τ of toxin wash-in): 0.073 ± 0.006 s⁻¹
koff (Kv4.3; inverse of τ of toxin wash-out): 0.005 ± 0.0004 s⁻¹
Ki (Kv4.3; method text: Kd = koff / kon): 0.735 ± 0.05 µM
